Values quoted from earlier work as cited in patent US9023417B2, “Use of a polyamine-poor composition for the production of a medical human food” (Univeriste de Rennes 1, priority 2003, dated 2015).

System: Escherischia coli

Which “inhibition of the synthesis of polyamines in Escherischia coli” value does the source give for `C[C@](N)(CCCN)C(=O)O` [Alpha-methylornithine, alpha-methylornithine] here?
Its value is “inhibiting the synthesis of polyamines”.

For `NCCC[C@](N)(C(=O)O)C(F)F` [a-DFMO, 2-difluoromethylornithine], which “inhibition of the synthesis of polyamines in Escherischia coli” value is on record?
Its value is “not the case”.
